# Patent US8158621B2, “Methods of treating or preventing autoimmune diseases with 2,4-pyrimidinediamine compounds” (Rigel Pharmaceuticals, Inc., priority 2002, dated 2012)
# pIC50: −log10 of the molar value.
# System: Human Jurkat T-cells (clone N)
# Experiment: Jurkat T-cell activation (anti-TCR, CD69 upregulation)
# Type: cell-based
# Details: not given
# How it was run: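 Readout is CD69 upregulation by flow cytometry (anti-CD69-APC, 20 min at 4 °C) after 20 h anti-TCR (C305, 500 ng/ml) stimulation at 37 °C.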
row,SMILES,pIC50
1,COC(=O)COc1cccc(Nc2ncc(F)c(Nc3ccc4c(c3)OCCCO4)n2)c1 [Compound R935185],5.39
2,COCc1cc(=O)oc2cc(Nc3ncc(F)c(Nc4ccc5c(COC)cc(=O)oc5c4)n3)ccc12 [Compound R926620],< 5.00
3,CCOC(=O)C(C)(C)Oc1cccc(Nc2ncc(F)c(Nc3ccc(C)c(O)c3)n2)c1 [Compound R926908],4.51
4,Oc1cccc(Nc2nc(Nc3ccc4cn[nH]c4c3)ncc2F)c1 [Compound R935191],5.53
5,CCOC(=O)COc1cccc(Nc2ncc(F)c(Nc3ccc4c(c3)OCCN4)n2)c1 [Compound R909266],4.89
6,CCOC(=O)C1CCN(Cc2cccc(Nc3nc(Nc4cccc(OCC(=O)NC)c4)ncc3F)c2)CC1 [Compound R926905],5.19
7,OCCOc1ccc(Nc2ncc(F)c(Nc3ccc4c(c3)OCCCO4)n2)cc1 [Compound R935183],5.64
8,CNC(=O)COc1cccc(Nc2ncc(F)c(Nc3cccc(N(C)C)c3)n2)c1 [Compound R950264],5.70
9,Fc1cnc(Nc2ccc(OCCN3CCOCC3)cc2)nc1Nc1ccc2c(c1)OCCO2 [Compound R926709],5.61
10,COC(=O)c1cc(COc2cccc(Nc3ncc(F)c(Nc4ccc5c(c4)OCCO5)n3)c2)co1 [Compound R935207],< 5.00
11,O=C(O)COc1ccc(Nc2ncc(F)c(Nc3ccc(OCC(=O)O)cc3)n2)cc1 [Compound R926560],< 5.00
12,CCOc1ccc(Nc2ncc([N+](=O)[O-])c(Nc3ccc(OCC)cc3)n2)cc1 [Compound R940090],< 5.00
13,CCOC(=O)COc1ccc(Nc2nc(Nc3ccc(OCC(=O)OCC)cc3)c(NC(=O)NC3CCCC3)c(C(=O)OCC)n2)cc1 [Compound R926588],< 5.00
14,CCOC(=O)COc1cccc(Nc2ncc(F)c(Nc3ccc(O)c(C(=O)O)c3)n2)c1 [Compound R950290],< 5.00
15,COC(=O)c1cc2cc(Nc3ncc(F)c(Nc4ccc5[nH]c(C(=O)OC)cc5c4)n3)ccc2[nH]1 [Compound R926593],5.89
16,CNC(=O)CNc1cccc(Nc2ncc(F)c(Nc3cccc(O)c3)n2)c1 [Compound R950218],5.47
17,COC(=O)Cn1ncc2ccc(Nc3nc(Nc4cccc(O)c4)ncc3F)cc21 [Compound R935220],5.09
18,COC(=O)COc1cccc(Nc2ncc(F)c(Nc3ccc4c(c3)C(OC)CCO4)n2)c1 (centres unmarked) [Compound R950295],5.33
19,CNC(=O)CCn1ncc2cc(Nc3ncc(F)c(Nc4ccc5c(c4)OCCO5)n3)ccc21 [Compound R935309],6.11
20,N#CCOc1ccc(Nc2ncc(F)c(Nc3cccc(O)c3)n2)cc1 [Compound R945070],< 5.00
21,O=C(CNc1cccc(Nc2ncc(F)c(Nc3ccc4c(c3)OCCO4)n2)c1)NCCN1CCOCC1 [Compound R950200],5.65
22,CCOC(=O)COc1ccc(Nc2ncc(C#N)c(Nc3ccc(OCC(=O)OCC)cc3)n2)cc1 [Compound R925775],< 5.00
23,CNC(=O)c1cc2cccc(Nc3ncc(F)c(Nc4ccc5c(c4)OCCO5)n3)c2[nH]1 [Compound R926815],< 5.00
24,O=C(CNc1cccc(Nc2ncc(F)c(Nc3ccc4c(c3)OCCO4)n2)c1)N(CCO)CCO [Compound R950199],5.49
25,CCOC(=O)COc1cccc(Nc2ncc(F)c(Nc3cccc(C(C)(C)C)c3)n2)c1 [Compound R940270],< 5.00
26,CCOC(=O)CCn1ncc2cc(Nc3ncc(F)c(Nc4ccc5c(c4)OCCO5)n3)ccc21 [Compound R935301],5.64
27,CC(C)(C)OC(=O)COc1ccc(Nc2nc(Cl)c(Cl)c(Nc3ccc(OCC(=O)OC(C)(C)C)cc3)n2)cc1 [Compound R926576],< 5.00
28,CCOC(=O)c1cnc(Nc2cccc(O)c2)nc1N[C@@H](Cc1ccccc1)C(=O)OCC [Compound R926528],< 5.00
29,ON=C(c1ccccc1)c1cccc(Nc2ncc(F)c(Nc3cccc(C(=NO)c4ccccc4)c3)n2)c1 [Compound R950380],5.06
30,O=C(CNc1cccc(Nc2ncc(F)c(Nc3ccc4c(c3)OCCO4)n2)c1)N1CCOCC1 [Compound R950193],5.55

# Second part, the molecule after the results:
row,pIC50,SMILES
1,5.48,CNC(=O)COc1ccc(Nc2ncc(F)c(Nc3ccc4c(c3)OCCO4)n2)cc1 [Compound R926708]
2,5.27,Cn1ncc2cc(Nc3ncc(F)c(Nc4ccc5c(cnn5C)c4)n3)ccc21 [Compound R935192]
3,5.20,OCCn1ncc2cc(Nc3nc(Nc4ccc5c(c4)OCCO5)ncc3F)ccc21 [Compound R935258]
4,< 5.00,CSc1nc(Nc2cccc(O)c2)nc(Nc2cccc(O)c2)c1Cl [Compound R926595]
5,< 5.00,COc1cc(-c2ccccc2)c(C)cc1Nc1ncc(C)c(Nc2cc(C)c(-c3ccccc3)cc2OC)n1 [Compound R935003]
6,5.91,Cc1cc(Nc2nc(Nc3cccc(OCC(=O)N4CCNCC4)c3)ncc2F)cc(Cl)c1O [Compound R945149]
7,< 5.00,CCOC(=O)C(C)(C)c1ccc(Nc2nc(Nc3ccc(OCC(=O)OC)cc3)ncc2F)cc1 [Compound R935157]
8,4.77,COC(=O)COc1ccc(Nc2cc(Cl)nc(Nc3ccc(OCC(=O)OC)cc3)n2)cc1 [Compound R926411]
9,5.22,Cc1nc(COc2cccc(Nc3ncc(F)c(Nc4ccc(OC(C)C)cc4)n3)c2)no1 [Compound R945129]
10,5.21,COC(=O)Cn1ncc2cc(Nc3nc(Nc4cccc(O)c4)ncc3F)ccc21 [Compound R935250]
11,< 5.00,COC(=O)c1cc2cc(Nc3ncc(F)c(Nc4ccc5c(c4)C(=O)OC5)n3)ccc2o1 [Compound R940294]
12,5.60,Oc1cccc(Nc2nc(Nc3ccc4[nH]ncc4c3)ncc2F)c1 [Compound R935199]
13,< 5.00,CNC(=O)COc1cccc(Nc2ncc(F)c(Nc3cccc(CN)c3)n2)c1 [Compound R940309]
14,< 5.00,Cc1nc(COc2cccc(Nc3nc(Nc4ccc(OC(C)C)cc4)ncc3F)c2)no1 [Compound R945138]
15,< 5.00,COC(=O)COc1ccc(Nc2ncc(F)c(Nc3ccc(OC(C)C)cc3)n2)cc1 [Compound R935159]

# Same assay, conditions: Homo sapiens
row,SMILES,pIC50
1,Nc1cc(Nc2ncc(F)c(Nc3ccc([N+](=O)[O-])c(N)c3)n2)ccc1[N+](=O)[O-] [Compound R950135],< 5.00
2,O=[N+]([O-])c1cc(Nc2ccnc(Nc3ccc(F)c([N+](=O)[O-])c3)n2)ccc1F [Compound R950152],5.58

# Same assay, conditions: Homo sapiens, Jurkat
row,SMILES,pIC50
1,CN(C)c1cccc(Nc2ncc(F)c(Nc3cccc(N(C)C)c3)n2)c1 [Compound R950182],< 5.00
2,CC(=O)Nc1cccc(OCCCNc2ncc(F)c(Nc3ccc4c(c3)OCCO4)n2)c1 [Compound R926787],< 5.00
3,COC(=O)c1cc2cc(Nc3ncc(F)c(Nc4ccc5c(c4)OCCO5)n3)ccc2o1 [Compound R926690],4.87
4,CCNC(=O)Nc1ccc(Nc2ncc(F)c(Nc3ccc(NC(=O)NCC)cc3)n2)cc1 [Compound R945040],< 5.00
5,CC(C)Oc1ccc(Nc2nc(Nc3ccc(OCCO)cc3)ncc2F)cc1 [Compound R935160],5.63
6,Brc1cnc(Nc2ccc3c(c2)OCCO3)nc1Nc1ccc2c(c1)OCCO2 [Compound R925771],5.14
7,COc1cc(Nc2ncc(F)c(Nc3ccc4c(c3)OCCO4)n2)cc(OC)c1OC [Compound R926762],6.15
8,Fc1cnc(Nc2ccc(OCc3ccccc3)c(C(F)(F)F)c2)nc1Nc1ccc(OCc2ccccc2)c(C(F)(F)F)c1 [Compound R950090],< 5.00
9,Oc1ccc(Nc2ncc(F)c(Nc3ccc(O)c(F)c3)n2)cc1F [Compound R926681],5.70
10,Fc1cnc(NCc2csc3ccccc23)nc1NCc1csc2ccccc12 [Compound R945145],< 5.00
11,COC(=O)c1cc(Nc2ncc(F)c(Nc3cccc(O)c3)n2)cc(C(F)(F)F)c1 [Compound R926863],< 5.00
12,Cc1ccc(N)cc1Nc1ncc(F)c(Nc2cc(N)ccc2C)n1 [Compound R950157],< 5.00
13,Oc1ccc(CCNc2ccnc(NCCc3ccc(O)cc3)n2)cc1 [Compound R925790],4.77
14,COc1cc(Nc2ncc(F)c(Nc3cccc(O)c3)n2)c(OC)cc1Cl [Compound R926857],< 5.00
15,CCOc1cccc(Nc2ncc(F)c(Nc3cccc(OCC)c3)n2)c1 [Compound R926064],< 5.00

# Results, then the molecule that gave them:
row,pIC50,SMILES
1,< 5.00,CCOC(=O)C(C)(C)c1ccc(Nc2nc(Nc3ccc4c(c3)OCCO4)ncc2F)cc1 [Compound R935172]
2,< 5.00,Oc1cccc(Nc2cc(-c3ccccc3)nc(Nc3cccc(O)c3)n2)c1 [Compound R925812]
3,< 5.00,COc1ccc(Nc2ccnc(Nc3ccc(OC)c(-c4ccccc4)c3)n2)cc1-c1ccccc1 [Compound R925806]
4,< 5.00,Cc1noc(C)c1Nc1ncc(F)c(Nc2ccc3c(c2)OCCO3)n1 [Compound R926744]
5,4.54,CCOc1ccc(Nc2ccnc(Nc3ccc(OCC)c(N)c3)n2)cc1N [Compound R950142]
6,5.42,COc1cc(Nc2ncc(F)c(Nc3cc(OC)c(OC)c(OC)c3)n2)cc(OC)c1OC [Compound R926688]
7,< 5.00,c1ccc(-c2cc(Nc3ccc4c(c3)OCCO4)nc(Nc3ccc4c(c3)OCCO4)n2)cc1 [Compound R925811]
8,< 5.00,COC(=O)c1cc2cc(Nc3nc(Nc4ccc5c(c4)OCCO5)ncc3F)ccc2o1 [Compound R926485]
9,5.12,CC(C)Oc1ccc(Nc2ncc(F)c(Nc3cccc(N)c3)n2)cc1 [Compound R950165]
10,< 5.00,Fc1cnc(Nc2cccc(-c3nnn[nH]3)c2)nc1Nc1ccc2c(c1)OCCO2 [Compound R926843]
11,5.15,Nc1cccc(Nc2ncc(F)c(Nc3cccc(O)c3)n2)c1 [Compound R950227]
12,< 5.00,c1ccc(-c2ccccc2Nc2ccnc(Nc3ccccc3-c3ccccc3)n2)cc1 [Compound R925804]
13,5.26,CCOc1ccc(Nc2ncc(F)c(Nc3ccc(OCC)c(N)c3)n2)cc1N [Compound R950139]
14,< 5.00,Clc1ccc(-c2cnc(Nc3ccc4c(c3)OCCO4)nc2Nc2ccc3c(c2)OCCO3)cc1 [Compound R925786]
15,4.74,OCc1cccc(Nc2nc(Nc3ccc4c(c3)OCCO4)ncc2F)c1 [Compound R925758]
